Values joined by “and” are separate entries in the source; they are usually repeats but may differ in a detail not shown here. Equal entries are not always repeated. Where two headings read alike, the source gives them in different places.
Tests used:
[1] = system: HCC 1419; experiment: Cell counts, HCC 1419; assay type: cell-based; details: for cell counts: single wells
Method: Cells were plated into 48-well Corning CellBind™ plates at densities of 20,000 cells for normal cells and 10,000˜20,000 cells for cancer cells. […] The first time point treated with the composition of the invention is 0 h.
Cells were harvested using Trypsin-EDTA at the designated time points. […] Two 48-well plates were used per cell line, and they were measured at 0 h, 12 h, 24 h, 48 h, 4 d and 7 d, respectively.
In the 1st plate, cells were treated with the composition according to the invention and medium was changed at 0 h and 3 d. […] As a result, LC-50 curves were generated in the 1st week.
In the 2nd plate, 7 d of the 1st week (LC-50) is the same as 0 h of the 2nd week (recovery).
At 0 h of the 2nd week, medium was exchanged with untreated medium for the remainder of the experiment. The untreated controls were not measured in the 2nd week (recovery) due to overconfluence by the end of the 1st week. As a result, Recovery curves were generated in the 2nd week.

[2] = system: C-6
Method: Cancer cell lines HCC 1419, MCF-7, MDA-MB-468, SKBR3, PC3, HT1299, Saos-2, C-6, AsPc, MDA-MB-231, RKO, HeLa and TT, and normal cell lines HME 50 HT, BJ and CCD-1074sk were tested for changes in metabolism (XTT assay) and cell death (cell counts).
Cells were plated into 48-well Corning CellBind™ plates at densities of 20,000 cells for normal cells and 10,000˜20,000 cells for cancer cells. 24 to 48 h after plating, cells were treated with the composition according to the invention at concentrations of 4.5e-2M. The first time point treated with the composition of the invention is 0 h. At 3 days after the first treatment with the composition of the invention, medium was changed and the composition of the invention at the same concentrations were added to the cultured cells.
The XTT assay is an accepted analysis technique for viability and cytotoxicity of anticancer drugs or other pharmaceutical compositions. Cells were seeded in a 96-well tissue culture plate at a density of 10,000 cells for normal cells and 5,000 cells for cancer cells. After incubation period, the formazan dye formed was quantitated using an ELISA reader. The optimal wavelength used in experiments was 500 nm, and it was measured at 0 h, 12 h, 24 h, 48 h, 4 d and 7 d, respectively. The obtained values were generated using the software SoftMax Pro 4.8.
The cell viability was calculated according to the manufacturer's instructions as follows (the term “blank” means XTT in medium only):
Cellular cytotoxicity was calculated according to the manufacturer's instructions as follows: […]

CC(=O)O[C@H]1C(=O)[C@@]2(C)[C@H]([C@H](OC(=O)c3ccccc3)[C@]3(O)C[C@H](OC(=O)[C@H](O)[C@@H](NC(=O)c4ccccc4)c4ccccc4)C(C)=C1C3(C)C)[C@]1(OC(C)=O)CO[C@@H]1C[C@@H]2O [Taxol]
growth pattern of the cells in the well (microscopy) [1]: growing in a diffuse, spreading pattern over the whole well | number of cancer cells (course) ([1]; 1st week (LC50) and 2nd week (recovery)): did not decreased any more and was maintained | cell counts, Mean value ([1]; 1st week (LC50), 0 h): 3156 | cell counts ([1]; 1st week (LC50), 0 h): 3055 and 2626 and 3788 | cell counts, Mean value ([1]; 1st week (LC50), 12 h): 3479 | cell counts ([1]; 1st week (LC50), 12 h): 3434 and 3451 and 3553 | cell counts, Mean value ([1]; 1st week (LC50), 24 h): 3036 | cell counts ([1]; 1st week (LC50), 24 h): 2957 and 3488 and 2664 | cell counts, Mean value ([1]; 1st week (LC50), 48 h): 2978 | cell counts ([1]; 1st week (LC50), 48 h): 2232 and 3502 and 3199 | cell counts, Mean value ([1]; 1st week (LC50), 4 d): 2544 | cell counts ([1]; 1st week (LC50), 4 d): 1716 and 2940 and 2975 | cell counts, Mean value ([1]; 1st week (LC50), 7 d): 1741 | cell counts ([1]; 1st week (LC50), 7 d): 1718 and 1710 and 1794 | cell counts, Mean value ([1]; 2nd week (recovery), 0 h): 8878 | cell counts ([1]; 2nd week (recovery), 0 h): 8472 and 8522 and 9639 | cell counts ([1]; 2nd week (recovery), 24 h): 7966 | cell counts ([1]; 2nd week (recovery), 48 h): 4901 | cell counts ([1]; 2nd week (recovery), 7 d): 7316 and 3792 | The absorbance ([2]; C-6, 1st week (LC50), 0 h): 2.6477 and 2.6197 and 2.482 | The absorbance, Mean value ([2]; C-6, 1st week (LC50), 0 h): 2.5831 | The absorbance, group - Blank ([2]; C-6, 1st week (LC50), 0 h): 2.0608 | The absorbance ([2]; C-6, 1st week (LC50), 12 h): 2.851 and 2.8475 and 2.6595 | The absorbance, Mean value ([2]; C-6, 1st week (LC50), 12 h): 2.7860 | The absorbance, group - Blank ([2]; C-6, 1st week (LC50), 12 h): 2.2637 | The absorbance ([2]; C-6, 1st week (LC50), 24 h): 2.6263 and 2.6408 and 2.7106 | The absorbance, Mean value ([2]; C-6, 1st week (LC50), 24 h): 2.6592 | The absorbance, group - Blank ([2]; C-6, 1st week (LC50), 24 h): 2.1369 | The absorbance ([2]; C-6, 1st week (LC50), 48 h): 2.5907 and 2.3173 and 2.5122 | The absorbance, Mean value ([2]; C-6, 1st week (LC50), 48 h): 2.4734 | The absorbance, group - Blank ([2]; C-6, 1st week (LC50), 48 h): 1.9511 | The absorbance ([2]; C-6, 1st week (LC50), 4 d): 3.4031 and 2.4181 and 2.3613 | The absorbance, Mean value ([2]; C-6, 1st week (LC50), 4 d): 2.7275 | The absorbance, group - Blank ([2]; C-6, 1st week (LC50), 4 d): 2.2052 | The absorbance ([2]; C-6, 1st week (LC50), 7 d): 2.334 and 2.3441 and 2.3017 | The absorbance, Mean value ([2]; C-6, 1st week (LC50), 7 d): 2.3266 | The absorbance, group - Blank ([2]; C-6, 1st week (LC50), 7 d): 1.8043 | The absorbance ([2]; C-6, 2nd week (recovery), 0 h): 2.7171 and 2.4409 and 2.6926 | The absorbance, Mean value ([2]; C-6, 2nd week (recovery), 0 h): 2.6169 | The absorbance, group - Blank ([2]; C-6, 2nd week (recovery), 0 h): 2.0945 | The absorbance ([2]; C-6, 2nd week (recovery), 24 h): 1.9908 and 2.3106 and 2.2634 | The absorbance, Mean value ([2]; C-6, 2nd week (recovery), 24 h): 2.1883 | The absorbance, group - Blank ([2]; C-6, 2nd week (recovery), 24 h): 1.6659 | The absorbance ([2]; C-6, 2nd week (recovery), 48 h): 3.111 and 2.4572 and 2.7053 | The absorbance, Mean value ([2]; C-6, 2nd week (recovery), 48 h): 2.7578 | The absorbance, group - Blank ([2]; C-6, 2nd week (recovery), 48 h): 2.2355 | The absorbance ([2]; C-6, 2nd week (recovery), 4 d): 2.6888 and 2.7862 and 2.8075 | The absorbance, Mean value ([2]; C-6, 2nd week (recovery), 4 d): 2.7608 | The absorbance, group - Blank ([2]; C-6, 2nd week (recovery), 4 d): 2.2385 | The viability ([2]; C-6, 2nd week (recovery), 4 d): 0.8937 | The absorbance ([2]; C-6, 2nd week (recovery), 7 d): 2.4639 and 2.1497 and 2.4909 | The absorbance, Mean value ([2]; C-6, 2nd week (recovery), 7 d): 2.3682 | The absorbance, group - Blank ([2]; C-6, 2nd week (recovery), 7 d): 1.8458 | The cytotoxicity ([2]; rat, 12 h, 220 nM): 0.1898

Reference: patent publication US20120016019A1, “PHARMACEUTICAL COMPOSITION FOR TREATING OR PREVENTING CANCER” (priority 2010, published 2012)
